Measured values from ChEMBL document CHEMBL4411258, “Novel natural compounds from endophytic fungi with anticancer activity” (Eur J Med Chem, 2018).
≈ marks a conversion by molar mass, not a printed value. Positions of bridges follow the written chain, without caps; N, C: chain ends. Residues, ends and D or L forms follow the SMILES beside them.

What was measured:
A2780 [1] = test: Cytotoxicity against human A2780 cells by MTT assay; assay type: functional, cell-based
HeLa [2] = test: Cytotoxicity against human HeLa cells after 48 hrs by sulforhodamine B assay; assay type: functional, cell-based
HepG2 = test: Cytotoxicity against human HepG2 cells after 24 hrs by MTT assay; assay type: functional, cell-based; conditions: HepG2, 24 h
MCF7 [3] = test: Cytotoxicity against human MCF7 cells after 24 hrs by MTT assay; assay type: functional, cell-based; conditions: MCF7, 24 h
A549 [4] = test: Cytotoxicity against human A549 cells after 24 hrs by MTT assay; assay type: functional, cell-based; conditions: A549, 24 h
[5] = Antiproliferative activity against HUVEC assessed as growth inhibition; assay type: cell-based; conditions: human, HUVEC cells
K562 [6] = test: Antiproliferative activity against human K562 assessed as growth inhibition; assay type: functional
HL-60 [7] = test: Cytotoxicity against human HL60 cells by CCK8 assay; assay type: functional, cell-based
A549 [8] = test: Cytotoxicity against human A549 cells by CCK8 assay; assay type: functional, cell-based
SMMC-7721 = test: Cytotoxicity against human SMMC7721 cells by CCK8 assay; assay type: functional, cell-based
MCF7 [9] = test: Cytotoxicity against human MCF7 cells by CCK8 assay; assay type: functional, cell-based
SW480 = test: Cytotoxicity against human SW480 cells by CCK8 assay; assay type: functional, cell-based
A2780cisR = test: Cytotoxicity against human A2780cisR cells after 72 hrs by MTT assay; assay type: functional, cell-based
A2780 [10] = test: Cytotoxicity against human A2780 cells after 72 hrs by MTT assay; assay type: functional, cell-based; conditions: A2780, 72 h
HL-60 [11] = test: Cytotoxicity against human HL60 cells by trypan blue exclusion assay; assay type: functional, cell-based
K562 [12] = test: Cytotoxicity against human K562 cells by trypan blue exclusion assay; assay type: functional, cell-based
[13] = Inhibition of TNFalpha-induced NFkappaB (unknown origin) activation expressed in HEK293 cells preincubated for 1 hr followed by TNFalpha stimulation and measured after 1 hr by dual luciferase reporter gene assay; assay type: cell-based; conditions: Homo sapiens
HeLa [14] = test: Cytotoxicity against human HeLa cells by MTT assay; assay type: functional, cell-based
MCF7 [15] = test: Cytotoxicity against human MCF7 cells by MTT assay; assay type: functional, cell-based
[16] = target: Polyunsaturated fatty acid 5-lipoxygenase (Homo sapiens) (UniProt P09917); test: Inhibition of 5-LOX (unknown origin) at 30 ug/ml relative to control
NCI-H460 = test: Cytotoxicity against human NCI-H460 cells; assay type: functional, cell-based
T47D = test: Cytotoxicity against human T47D cells after 48 hrs by MTT assay; assay type: functional, cell-based
MOLT-3 = test: Cytotoxicity against human MOLT3 cells by XTT assay; assay type: functional, cell-based
HL-60 [17] = test: Cytotoxicity against human HL60 cells by XTT assay; assay type: functional, cell-based
HCT-116 = test: Cytotoxicity against human HCT116 cells by MTT assay; assay type: functional, cell-based
KB = test: Cytotoxicity against human KB cells by MTT assay; assay type: functional, cell-based
U-251 = test: Cytotoxicity against human U251 cells by MTT assay; assay type: functional, cell-based
PC-3 = test: Cytotoxicity against human PC3 cells by MTT assay; assay type: functional, cell-based
HCT-15 = test: Cytotoxicity against human HCT15 cells by MTT assay; assay type: functional, cell-based
SK-LU-1 = test: Cytotoxicity against human SKLU1 cells by MTT assay; assay type: functional, cell-based
MKN-45 = test: Cytotoxicity against human MKN45 cells after 24 hrs by MTT assay; assay type: functional, cell-based; conditions: MKN-45, 24 h
LoVo = test: Cytotoxicity against human LoVo cells after 24 hrs by MTT assay; assay type: functional, cell-based
HL-60 [18] = test: Cytotoxicity against human HL60 cells after 24 hrs by MTT assay; assay type: functional, cell-based; conditions: HL-60, 24 h
Vero = test: Cytotoxicity against African green monkey Vero cells; assay type: cell-based; conditions: Chlorocebus sabaeus

Sequence of Polyunsaturated fatty acid 5-lipoxygenase (Homo sapiens) (P09917 whole entry): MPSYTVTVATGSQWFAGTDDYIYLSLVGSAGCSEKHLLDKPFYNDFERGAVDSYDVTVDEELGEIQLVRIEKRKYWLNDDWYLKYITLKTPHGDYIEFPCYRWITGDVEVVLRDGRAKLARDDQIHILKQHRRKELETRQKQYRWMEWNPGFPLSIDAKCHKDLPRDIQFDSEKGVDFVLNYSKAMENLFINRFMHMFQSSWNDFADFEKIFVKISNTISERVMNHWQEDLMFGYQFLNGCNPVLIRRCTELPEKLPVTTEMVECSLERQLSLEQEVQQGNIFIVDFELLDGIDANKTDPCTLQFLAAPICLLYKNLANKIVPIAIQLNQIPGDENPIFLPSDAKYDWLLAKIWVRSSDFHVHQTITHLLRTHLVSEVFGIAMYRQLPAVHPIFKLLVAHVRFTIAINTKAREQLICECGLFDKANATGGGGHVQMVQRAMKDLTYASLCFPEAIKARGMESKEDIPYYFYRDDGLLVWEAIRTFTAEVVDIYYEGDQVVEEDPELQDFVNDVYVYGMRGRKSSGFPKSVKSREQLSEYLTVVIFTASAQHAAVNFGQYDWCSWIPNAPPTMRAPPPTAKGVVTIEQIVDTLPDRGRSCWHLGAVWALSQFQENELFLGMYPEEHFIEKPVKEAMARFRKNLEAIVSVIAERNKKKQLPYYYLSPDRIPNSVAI

## O=C1N[C@H](Cc2ccccc2)C(=O)N[C@H]1Cc1cn([C@]23C[C@H]4C(=O)N[C@H](Cc5ccccc5)C(=O)N4[C@H]2Nc2ccccc23)c2ccccc12
A2780 [1]
  IC50: 56.7 µM

## C/C=C/[C@@H]1[C@@H]2C[C@@H](C)CC[C@@H]2[C@](C)(O)[C@@H]2Oc3c(-c4ccc(O)cc4)c[nH]c(=O)c3C(=O)[C@@H]12
HeLa [2]
  IC50: 8.8 µM

## CC[C@H](C)[C@@H]1NC(=O)[C@@H]2CSSC[C@H](NC(=O)[C@H](CC(C)C)NC(=O)[C@H](C(C)C)NC1=O)C(=O)N2 (cyclo(CCIVL); disulfide 1-2)
HepG2
  IC50: 36 µM
MCF7 [3]
  IC50: 0.65 µM
A549 [4]
  IC50: 2.42 µM

## O=C1c2cccc(O)c2[C@H]2C[C@@H]1c1ccc3cccc(O)c3c1O2
[5]
  GI50: 98.4 µM
K562 [6]
  GI50: 85.5 µM

## C=C1[C@@H](C)[C@H]2[C@H](Cc3ccccc3)NC(=O)[C@]23C(=O)/C=C/C(=O)CCC[C@@H](C)C/C=C/[C@H]3[C@@H]1O
HL-60 [7]
  IC50: 7.7 to 15.8 µM
A549 [8]
  IC50: 7.7 to 15.8 µM
SMMC-7721
  IC50: 7.7 to 15.8 µM
MCF7 [9]
  IC50: 7.7 to 15.8 µM
SW480
  IC50: 7.7 to 15.8 µM

## O=C1N2[C@H]3C(=CC=C[C@@H]3O)C[C@]23SS[C@]12C[C@H]1[C@@H]([C@@H](O)C=C[C@@H]1O)N2C3=O
A2780cisR
  IC50: 0.661 µM
A2780 [10]
  IC50: 0.664 µM

## CCCCc1c(OC)cc(=O)oc1CO
HL-60 [11]
  IC50: 0.45 µg/mL (≈ 2.12 µM)
K562 [12]
  IC50: 0.9 µg/mL (≈ 4.24 µM)

## CO[C@]12OC[C@@H](C)[C@H]1C[C@]1(C)[C@@H](C)CC[C@H](O)[C@@]13O[C@@H]23
[13]
  IC50: 19.2 µM

## C[C@@H]1CC[C@@]23[C@H](C)CC[C@@H](C[C@H]2[C@]2(C)CC(=O)[C@H]12)C3(C)C
HeLa [14]
  IC50: 30.1 µM
MCF7 [15]
  IC50: 30.7 µM

## CCCCC/C=C/C1=C(CO)[C@@H](O)[C@H]2O[C@@]2(C/C=C(\C)C(=O)O)[C@H]1O
[16]
  inhibition: 67.4%

## CC1(C)C=Cc2cc3c(cc2O1)NC(=O)[C@]31C[C@@]23NC(=O)[C@]4(CCCN4C2=O)C[C@@H]3C1(C)C
NCI-H460
  IC50: 55.9 µM

## CCCC[C@H](C)/C=C(C)/C=C/C(=O)O[C@@]1(C)C(=O)C=C2C=C(/C=C/C(=O)O)OC=C2C1=O
T47D
  IC50: 1 to 10 µM

## CC1(C)CC[C@@H](O)[C@](C)(O)[C@@]12CC=C(C=O)CC2
MOLT-3
  IC50: 165 µM
HL-60 [17]
  IC50: 159 µM

## C=C1[C@@H](C)[C@H]2[C@H](Cc3ccccc3)NC(=O)[C@]23c2ccc(o2)CCC[C@@H](C)C/C=C/[C@H]3[C@@H]1O
HL-60 [7]
  IC50: 7.7 to 15.8 µM
A549 [8]
  IC50: 7.7 to 15.8 µM
SMMC-7721
  IC50: 7.7 to 15.8 µM
MCF7 [9]
  IC50: 7.7 to 15.8 µM
SW480
  IC50: 7.7 to 15.8 µM

## CC1=C2[C@@H](O)C[C@@]2(C)[C@@H]2C[C@@H]3CC[C@@H](C)[C@@]2(CC1)C3(C)C
HCT-116
  IC50: 25 µM
KB
  IC50: 25 µM

## C/C=C(\C)[C@H]1[C@@H](/C=C/C=C(\C)[C@@H](O)[C@@H](C)C(C)O)[C@@H]2C[C@@H](OC(=O)Cc3ccccc3)[C@](C)(O)C[C@H]2[C@@H]2O[C@@]21C (some centres not stated)
A2780 [1]
  IC50: 12.5 µM

## COC(=O)c1cc(OC)cc(OC)c1C(=O)c1coc2c1OC(C)CC2=O (configuration not stated)
KB
  IC50: 4.7 µM

## COC(=O)[C@@]12Oc3c(c(O)cc4c3[C@@H]3CC[C@]5(C4)C(=C(O)c4c(O)cc(C)cc4[C@@H]5O)C3=O)C(=O)C1=C(O)C=C[C@H]2O
U-251
  IC50: 5.32 µM
PC-3
  IC50: 8.62 µM
HCT-15
  IC50: 10.3 µM
MCF7 [15]
  IC50: 7.93 µM
SK-LU-1
  IC50: 1.16 µM

## COc1cc(=O)oc(C)c1CCC(C)=O
HL-60 [11]
  IC50: 0.18 µg/mL (≈ 0.856 µM)
K562 [12]
  IC50: 0.3 µg/mL (≈ 1.43 µM)

## CCCC[C@H](C)/C=C(C)/C=C/C(=O)O
T47D
  IC50: 1 to 10 µM

## CC[C@@H](O)[C@H](O)[C@@H]1C[C@](O)(OC)CC(=O)O1
A549 [4]
  IC50: < 200 µM
MKN-45
  IC50: < 200 µM
LoVo
  IC50: < 200 µM
HL-60 [18]
  IC50: < 200 µM

## C[C@H]1C/C=C/[C@H]2[C@@H]3O[C@]3(C)[C@@H](C)[C@H]3[C@H](Cc4ccc(O)cc4)NC(=O)[C@]32OC(=O)O/C=C/[C@@](C)(O)C1=O
Vero
  IC50: 1.19 µM

## CCCCC(O)/C=C/C1=C(CO)[C@@H](O)[C@@H](O)[C@](Cl)(C/C=C(\C)C(=O)O)C1=O (some centres not stated)
[16]
  inhibition: 48.3%
